In US7138361B2, “Herbicidal heterocycles” (E. I. du Pont de Nemours and Company, priority 2000, dated 2006):

Legend:
Format in all cases: in vivo
[1] = system: Surinam grass (Brachiaria decumbens); assay: Test B postemergence
Method in brief: (§1)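 Visual injury scores, 0 = no effect to 100 = complete control, assigned against controls after 13 to 15 days in the greenhouse. Compounds formulated in non-phytotoxic solvent plus surfactant and applied to soil after planting (pre) or onto foliage of 1- to 4-leaf plants (post).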

[2] = system: barnyardgrass (Echinochloa crus-galli); assay: Test B postemergence
Method in brief: as §1

[3] = system: blackgrass (Alopecurus myosuroides); assay: Test B postemergence
Method in brief: as §1

[4] = system: corn (Zea mays); assay: Test B postemergence
Method in brief: as §1

[5] = system: giant foxtail (Setaria faberii); assay: Test B postemergence
Method in brief: as §1

[6] = system: morning glory (Ipomoea hederacea); assay: Test B postemergence
Method in brief: as §1

[7] = system: pigweed (Amaranthus retroflexus); assay: Test B postemergence
Method in brief: as §1

[8] = system: velvetleaf (Abutilon theophrasti); assay: Test B postemergence
Method in brief: as §1

[9] = system: wheat (Triticum aestivum); assay: Test B postemergence
Method in brief: as §1

[10] = system: Surinam grass (Brachiaria decumbens); assay: Test B preemergence
Method in brief: as §1

[11] = system: barnyardgrass (Echinochloa crus-galli); assay: Test B preemergence
Method in brief: as §1

[12] = system: cocklebur (Xanthium strumarium); assay: Test B preemergence
Method in brief: as §1

[13] = system: corn (Zea mays); assay: Test B preemergence
Method in brief: as §1

[14] = system: crabgrass (Digitaria sanguinalis); assay: Test B preemergence
Method in brief: as §1

[15] = system: giant foxtail (Setaria faberii); assay: Test B preemergence
Method in brief: as §1

[16] = system: lambsquarters (Chenopodium album); assay: Test B preemergence
Method in brief: as §1

[17] = system: morning glory (Ipomoea hederacea); assay: Test B preemergence
Method in brief: as §1

[18] = system: pigweed (Amaranthus retroflexus); assay: Test B preemergence
Method in brief: as §1

[19] = system: rice (Oryza saliva); assay: Test B preemergence
Method in brief: as §1

[20] = system: velvetleaf (Abutilon theophrasti); assay: Test B preemergence
Method in brief: as §1

[21] = system: barnyardgrass (Echinochloa crus-galli); assay: Test C flooded paddy test; settings: for Barnyardgrass plant response rating: Flooded Paddy, scale 0 to 100, 0 no effect, 100 complete control; for Plant response rating, Barnyardgrass: flooded paddy test, scale 0 to 100 (0 no effect, 100 complete control)
Method in brief: (§2)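 Flooded paddy, 2-leaf stage at treatment. Readout: visual % control vs untreated, 0–100, at 12–14 d in greenhouse.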

[22] = system: duck salad (Heteranthera limosa); assay: Test C flooded paddy test; settings: for Ducksalad plant response rating: Flooded Paddy, scale 0 to 100, 0 no effect, 100 complete control; for Plant response rating, Ducksalad: flooded paddy test, scale 0 to 100 (0 no effect, 100 complete control)
Method in brief: as §2

[23] = system: rice (Oryza saliva); assay: Test C flooded paddy test; settings: for Rice plant response rating: Flooded Paddy, scale 0 to 100, 0 no effect, 100 complete control; for Plant response rating, Rice: flooded paddy test, scale 0 to 100 (0 no effect, 100 complete control)
Method in brief: as §2

[24] = system: smallflower flatsedge (Cyperus difformis); assay: Test C flooded paddy test; settings: for Flatsedge plant response rating: Flooded Paddy, scale 0 to 100, 0 no effect, 100 complete control; for Plant response rating, Flatsedge: flooded paddy test, scale 0 to 100 (0 no effect, 100 complete control)
Method in brief: as §2

[25] = system: Nightshade; assay: Test C preemergence; settings: visual evaluation after 12 to 14 days
[26] = system: Sunflower; assay: Test C preemergence; settings: scale 0 to 100, 0 no effect, 100 complete control
[27] = Rate 125 g/ha, scale 0 to 100, 0 no effect, 100 complete control
[28] = Rate 500 g/ha, scale 0 to 100, 0 is no effect, 100 is complete control, 13 to 15 days
[29] = Preemergence, Rate 500 g/ha, scale 0 to 100, 0 no effect, 100 complete control
[30] = preemergence, Rate 125 g/ha, scale of 0 to 100 where 0 is no effect and 100 is complete control, 13 to 15 days
[31] = Rate 125 g/ha, scale 0 (no effect) to 100 (complete control), 13 to 15 days
[32] = preemergence, Rate 125 g/ha, scale 0 to 100, 0 no effect, 100 complete control

COc1cc(N2CCC(n3ccc(C(C)C)n3)C2=O)ccc1Cl (stereo not shown) [Compound 120]
Plant response rating, Surinam grass [1, 27]: 20 | Plant response rating, Surinam grass [1, 28]: 40 | Plant response rating, Barnyardgrass [2, 27]: 0 | Plant response rating, Barnyardgrass [2, 28]: 60 | Plant response rating, Blackgrass [3, 27]: 0 | Plant response rating, Blackgrass [3, 28]: 0 | Plant response rating, Corn [4, 27]: 0 | Plant response rating, Corn [4, 28]: 20 | Plant response rating, Foxtail, Giant [5, 27]: 0 | Plant response rating, Morningglory [6, 27]: 50 | Plant response rating, Pigweed [7, 27]: 60 | Plant response rating, Velvetleaf [8, 27]: 20 | Plant response rating, Wheat [9, 27]: 10 | Plant response rating, Surinam grass [10, 29]: 100 | Plant response rating, Surinam grass [10, 30]: 40 | Plant response rating, Barnyardgrass [11, 29]: 100 | Plant response rating, Barnyardgrass [11, 30]: 100 | Plant response rating, Cocklebur [12, 29]: 40 | Plant response rating, Cocklebur [12, 30]: 20 | Plant response rating, Corn [13, 29]: 50 | Plant response rating, Corn [13, 30]: 20 | Plant response rating, Crabgrass [14, 29]: 100 | Plant response rating, Crabgrass [14, 30]: 100 | Plant response rating, Foxtail, Giant [15, 29]: 100 | Plant response rating, Foxtail, Giant [15, 30]: 100 | Plant response rating, Lambsquarters [16, 29]: 100 | Plant response rating, Lambsquarters [16, 30]: 100 | Plant response rating, Morningglory [17, 29]: 100 | Plant response rating, Morningglory [17, 30]: 70 | Plant response rating, Pigweed [18, 29]: 100 | Plant response rating, Pigweed [18, 30]: 100 | Plant response rating, Rice [19, 29]: 30 | Plant response rating, Rice [19, 30]: 20 | Plant response rating, Velvetleaf [20, 29]: 40 | Plant response rating, Velvetleaf [20, 30]: 20 | Barnyardgrass plant response rating ([21]; Rate 250 g/ha): 80 | Plant response rating, Barnyardgrass ([21]; Rate 62 g/ha): 20 | Plant response rating, Barnyardgrass ([21]; Rate 125 g/ha): 50 | Ducksalad plant response rating ([22]; Rate 250 g/ha): 100 | Ducksalad plant response rating ([22]; Rate 500 g/ha): 100 | Plant response rating, Ducksalad ([22]; Rate 62 g/ha): 70 | Plant response rating, Ducksalad ([22]; Rate 125 g/ha): 100 | Rice plant response rating ([23]; Rate 250 g/ha): 30 | Rice plant response rating ([23]; Rate 500 g/ha): 80 | Plant response rating, Rice ([23]; Rate 62 g/ha): 0 | Plant response rating, Rice ([23]; Rate 125 g/ha): 20 | Flatsedge plant response rating ([24]; Rate 250 g/ha): 100 | Flatsedge plant response rating ([24]; Rate 500 g/ha): 100 | Plant response rating, Flatsedge ([24]; Rate 62 g/ha): 90 | Plant response rating, Flatsedge ([24]; Rate 125 g/ha): 100 | Plant response rating (0 to 100), Nightshade ([25]; Rate 500 g/ha): 100 | Plant response rating, Sunflower ([26]; Rate 250 g/ha): 100

CCC(C)c1ccn(C2CCN(c3ccc(C)c(OC)c3)C2=O)n1 (stereo not shown) [Compound 80]
Plant response rating, Surinam grass [1, 31]: 0 | Plant response rating, Surinam grass [1, 28]: 0 | Plant response rating, Barnyardgrass [2, 31]: 0 | Plant response rating, Barnyardgrass [2, 28]: 10 | Plant response rating, Blackgrass [3, 31]: 0 | Plant response rating, Blackgrass [3, 28]: 0 | Plant response rating, Corn [4, 31]: 0 | Plant response rating, Corn [4, 28]: 0 | Plant response rating, Foxtail, Giant [5, 31]: 0 | Plant response rating, Foxtail, Giant [5, 28]: 0 | Plant response rating, Morningglory [6, 31]: 40 | Plant response rating, Morningglory [6, 28]: 90 | Plant response rating, Pigweed [7, 31]: 70 | Plant response rating, Pigweed [7, 28]: 80 | Plant response rating, Velvetleaf [8, 31]: 40 | Plant response rating, Velvetleaf [8, 28]: 70 | Plant response rating, Wheat [9, 31]: 0 | Plant response rating, Wheat [9, 28]: 0 | Plant response rating, Surinam grass [10, 29]: 90 | Plant response rating, Surinam grass [10, 30]: 80 | Plant response rating, Barnyardgrass [11, 29]: 100 | Plant response rating, Barnyardgrass [11, 30]: 0 | Plant response rating, Cocklebur [12, 29]: 0 | Plant response rating, Cocklebur [12, 30]: 0 | Plant response rating, Corn [13, 29]: 20 | Plant response rating, Corn [13, 30]: 0 | Plant response rating, Crabgrass [14, 29]: 100 | Plant response rating, Crabgrass [14, 30]: 100 | Plant response rating, Foxtail, Giant [15, 29]: 100 | Plant response rating, Foxtail, Giant [15, 30]: 100 | Plant response rating, Lambsquarters [16, 29]: 100 | Plant response rating, Lambsquarters [16, 30]: 100 | Plant response rating, Morningglory [17, 29]: 100 | Plant response rating, Morningglory [17, 30]: 60 | Plant response rating, Pigweed [18, 29]: 100 | Plant response rating, Pigweed [18, 30]: 100 | Plant response rating, Rice [19, 29]: 90 | Plant response rating, Rice [19, 30]: 60 | Plant response rating, Velvetleaf [20, 29]: 70 | Plant response rating, Velvetleaf [20, 30]: 0 | Barnyardgrass plant response rating ([21]; Rate 250 g/ha): 90 | Barnyardgrass plant response rating ([21]; Rate 500 g/ha): 90 | Plant response rating, Barnyardgrass ([21]; Rate 62 g/ha): 0 | Plant response rating, Barnyardgrass ([21]; Rate 125 g/ha): 60 | Ducksalad plant response rating ([22]; Rate 250 g/ha): 100 | Ducksalad plant response rating ([22]; Rate 500 g/ha): 100 | Plant response rating, Ducksalad ([22]; Rate 62 g/ha): 80 | Plant response rating, Ducksalad ([22]; Rate 125 g/ha): 100 | Rice plant response rating ([23]; Rate 250 g/ha): 70 | Rice plant response rating ([23]; Rate 500 g/ha): 90 | Plant response rating, Rice ([23]; Rate 125 g/ha): 50 | Flatsedge plant response rating ([24]; Rate 250 g/ha): 90 | Flatsedge plant response rating ([24]; Rate 500 g/ha): 100 | Plant response rating, Flatsedge ([24]; Rate 62 g/ha): 90 | Plant response rating, Flatsedge ([24]; Rate 125 g/ha): 90 | Plant response rating (0 to 100), Nightshade ([25]; Rate 500 g/ha): 100 | Plant response rating, Sunflower ([26]; Rate 250 g/ha): 60

CC(C)(C)c1ccn(C2SCN(c3cccc(OC(F)F)c3)C2=O)n1 (stereo not shown) [Compound 36]
Plant response rating, Surinam grass [1, 31]: 0 | Plant response rating, Surinam grass [1, 28]: 50 | Plant response rating, Barnyardgrass [2, 31]: 90 | Plant response rating, Barnyardgrass [2, 28]: 100 | Plant response rating, Blackgrass [3, 31]: 0 | Plant response rating, Blackgrass [3, 28]: 0 | Plant response rating, Corn [4, 31]: 0 | Plant response rating, Corn [4, 28]: 70 | Plant response rating, Foxtail, Giant [5, 31]: 60 | Plant response rating, Foxtail, Giant [5, 28]: 90 | Plant response rating, Morningglory [6, 31]: 30 | Plant response rating, Morningglory [6, 28]: 40 | Plant response rating, Pigweed [7, 31]: 90 | Plant response rating, Pigweed [7, 28]: 100 | Plant response rating, Velvetleaf [8, 31]: 0 | Plant response rating, Velvetleaf [8, 28]: 60 | Plant response rating, Wheat [9, 31]: 0 | Plant response rating, Wheat [9, 28]: 0 | Plant response rating, Surinam grass [10, 29]: 100 | Plant response rating, Surinam grass [10, 32]: 70 | Plant response rating, Barnyardgrass [11, 29]: 100 | Plant response rating, Barnyardgrass [11, 32]: 100 | Plant response rating, Cocklebur [12, 29]: 0 | Plant response rating, Cocklebur [12, 32]: 0 | Plant response rating, Corn [13, 29]: 0 | Plant response rating, Corn [13, 32]: 0 | Plant response rating, Crabgrass [14, 29]: 100 | Plant response rating, Crabgrass [14, 32]: 100 | Plant response rating, Foxtail, Giant [15, 29]: 100 | Plant response rating, Foxtail, Giant [15, 32]: 100 | Plant response rating, Lambsquarters [16, 29]: 100 | Plant response rating, Lambsquarters [16, 32]: 100 | Plant response rating, Morningglory [17, 29]: 0 | Plant response rating, Pigweed [18, 29]: 100 | Plant response rating, Rice [19, 29]: 90 | Plant response rating, Velvetleaf [20, 29]: 0 | Barnyardgrass plant response rating ([21]; Rate 250 g/ha): 100 | Barnyardgrass plant response rating ([21]; Rate 500 g/ha): 100 | Plant response rating, Barnyardgrass ([21]; Rate 62 g/ha): 100 | Plant response rating, Barnyardgrass ([21]; Rate 125 g/ha): 100 | Ducksalad plant response rating ([22]; Rate 250 g/ha): 100 | Ducksalad plant response rating ([22]; Rate 500 g/ha): 100 | Plant response rating, Ducksalad ([22]; Rate 62 g/ha): 80 | Plant response rating, Ducksalad ([22]; Rate 125 g/ha): 90 | Rice plant response rating ([23]; Rate 250 g/ha): 90 | Rice plant response rating ([23]; Rate 500 g/ha): 90 | Plant response rating, Rice ([23]; Rate 62 g/ha): 30 | Plant response rating, Rice ([23]; Rate 125 g/ha): 80 | Flatsedge plant response rating ([24]; Rate 250 g/ha): 100 | Flatsedge plant response rating ([24]; Rate 500 g/ha): 100 | Plant response rating, Flatsedge ([24]; Rate 62 g/ha): 100 | Plant response rating, Flatsedge ([24]; Rate 125 g/ha): 100 | Plant response rating (0 to 100), Nightshade ([25]; Rate 250 g/ha): 90 | Plant response rating, Sunflower ([26]; Rate 125 g/ha): 0
